The values below come from US6613875B1, “Cyclic peptide tube” (The Scripps Research Institute, priority 1993, dated 2003).

Data set [1] in a line: Incorporation of peptide subunit into lipid bilayers of large unilamellar vesicles (absorption and fluorescence spectroscopy). It counts as physicochemical. The conditions noted are these: aqueous liposomal suspensions. From the text:
Incorporation of the peptide subunit into lipid bilayers using large unilamellar vesicles has been established by absorption and fluorescence spectroscopy. Formation of the hydrogen-bonded transmembrane channel structure in phosphatidylcholin liposomes has been supported by FT-IR spectroscopy (FIG. 24). The observed amide-I band at 1624 cm^−1 is not only similar to the carbonyl stretching frequencies found in other nanotube structures disclosed herein, but is also consistent with the infrared spectrum of gramicidin A in similar lipid bilayers. (E. Nabedryk et al in Biophys. J. (1982), vol. 38, pages 243-249. Furthermore, the observed N-H stretching frequency at 3272 cm^−1 strongly supports the formation of a tight network of hydrogen bonds with an average intersubunit distance of 4.7 Å.
The second control peptide cyclo[-(^MeN-D-Ala-Phe)4-] which has the desirable hydrophobic surface characteristics but lacks the propensity for participating in extended hydrogen bonding network, was also designed and tested for ion transport activity. The peptide design incorporates a novel N-methylation strategy on one face of the ring structure which predisposes the subunit toward a dimeric cylindrical structure (Ghadiri, M. R., Kobayashi, K., Granja, J. R., Chadha, R., and McRee, D. E. manuscript in preparation). Such a dimeric cylindrical ensemble is approximately 10 Å thick and can not span the lipid bilayer.
The ten-residue peptide subunit employed in the present study, cyclo[-Gln-(D-Leu-Trp)4-D-Leu-], is made up of largely tryptophan and leucine residues to favor its partitioning into and self-assembly in lipid bilayers. It was synthesized on solid support^5 and characterized by ^1H NMR spectroscopy and mass spectrometry. […] This has been supported by absorption and fluorescence spectrophotometry and gel permeation studies. Formation of a hydrogen bonded transmembrane channel structure in phosphatidylcholin liposomes has been established by FT-IR spectroscopy^6. […]

Data set [2] is described as follows: Channel-mediated glucose efflux from glucose entrapped unilamellar vesicles, enzyme coupled NADPH assay. It counts as biochemical. The conditions noted are these: for apparent rate constant of glucose transport: 27° C. From the text:
FIG. 28 illustrates a schematic illustration of channel-mediated glucose transport and the enzyme coupled assay used to monitor the transport activity with respect to the channel structure indicated in FIGS. 27A-B. Formation of a transmembrane pore structure(s) initiates glucose efflux from the liposome which can be directly monitored by measuring the rate of NADPH production. The enzymes and cofactors employed are hydrophilic and thus can not pass through the lipid membrane and are too large to penetrate the channel structure. Therefore, only the released glucose can undergo the enzymatic reaction.
FIG. 29 illustrates the ensuing glucose efflux on the addition of various amounts of the channel forming peptide of FIGS. 27A-B, viz., open circles represent 15.0×10^−6 M; closed circles represent 11.0×10^−6 M; open triangles represent 7.5×10^−6 M; closed triangles represent 5.6×10^−6 M; and open diamonds represent 3.8×10^−6 M. Efflux is expressed in terms of the amount of glucose released as a function of time (sampled at 90 sec intervals). The large unilamellar vesicles used in this study contained 200 mM D-glucose. All curves are background corrected to remove any contribution from the nonspecific glucose leakage from the liposomes.
Glucose transport activity was studied in isotonic solutions using glucose entrapped unilamellar lipid vesicles. Unilamellar vesicles, ˜150 nm in diameter, were prepared by the reverse-phase evaporation method using 1,2-dipalmitoyl-Sn-glycero-3-phosphatidylcholine (DPPC) 1-palmitoyl-2-oleoyl-Sn-glycero-3-phosphatidylcholine (POPC) 1-palmitoyl-2-oleoyl-Sn-glycero-3-phosphatidylserine (POPS), and cholesterol in the ratio 1:1:0.1:1 in a solution containing 50, 100, 150, or 200 mM D-glucose, 100 mM NaCl, and 50 mM Tris buffer pH 7.5, according to the method of F. Szoka et al. in Proc. Natl. Acad. Sci. USA (1978), vol. 75, pages 4194-4198. Liposomes were gel-filtered using Sephadex G-25 in an isotonic buffer containing 50, 100, 150, or 200 mM sucrose, 100 mM NaCl, and 50 mM Tris buffer pH 7.5. The liposome preparation was stored at 4° C. and used within 24 hours of the synthesis. The transport phenomenon was monitored spectrophotometrically at 340 nm for the production of NADPH using an enzyme coupled assay (FIG. 28), according to the method of S. C. Kinsky in Methods in Enzymology; Fleischer, S., Packer, L., Eds; Academic Press: London, 1974; vol. 32, pp 501-513. All experiments were performed on a Spectronic-3000 photodiode-array spectrophotometer using 3 ml quartz cuvettes placed in the thermojacketed multiple cell holder and held at 27° C. In a typical experiment the following solutions were sequentially placed in the cuvettes: 750 ml of buffer (300 mM NaCl, 50 mM Tris pH 7.5, 3.5 mM MgCl2, and 0.15 mM CaCl2), 500 ml of the enzyme solution (8 units.ml^−1 of hexokinase, 16 units.ml^−1 of glucose-6-phosphate dehydrogenase, 2.5 mM ATP, 1.3 mM NADP all dissolved in 200 mM NaCl, 50 mM Tris pH 7.5, 3.5 mM MgCl2, and 0.15 mM CaCl2), and 75 ml of the stock liposome solution^8 (2.6×10^−3 M in phospholipids). Total glucose content in each cuvette was determined by Triton X-100 treatment. Transport was initiated by the addition of an appropriate amount (5, 7.5, 10, 15, or 20 ml) of the peptide solution (1 mM in DMF) to the reference and the sample cuvettes (hexokinase was omitted from the reference sample). […] The production of NADPH was monitored at 340 nm for 1.5 h at 90 second time intervals. […]

Square brackets hold non-standard residues; d marks the D form.

Turning to “cyclo[-Gln-(D-Leu-Trp)4-D-Leu-] (cyclo(Q[dL]W[dL]W[dL]W[dL]W[dL]); SMILES CC(C)C[C@H]1NC(=O)[C@H](CCC(N)=O)NC(=O)[C@@H](CC(C)C)NC(=O)[C@H](Cc2c[nH]c3ccccc23)NC(=O)[C@@H](CC(C)C)NC(=O)[C@H](Cc2c[nH]c3ccccc23)NC(=O)[C@@H](CC(C)C)NC(=O)[C@H](Cc2c[nH]c3ccccc23)NC(=O)[C@@H](CC(C)C)NC(=O)[C@H](Cc2c[nH]c3ccccc23)NC1=O) [10-residue cyclic peptide forming 10 Å pores that transport glucose]”, in data set [1], the “partitioning / incorporation into lipid bilayers” value is “rapid incorporation”. Further, the “apparent rate constant of glucose transport” value is listed as 0.18±0.02 mol(glucose)/mol(peptide)/min^−1 in data set [2] (liposomes with initial glucose concentration 50 mM), 0.48±0.05 mol(glucose)/mol(peptide)/min^−1 in data set [2] (liposomes with initial glucose concentration 100 mM), 0.74±0.1 mol(glucose)/mol(peptide)/min^−1 in data set [2] (liposomes with initial glucose concentration 150 mM) and 1.2±0.09 mol(glucose)/mol(peptide)/min^−1 in data set [2] (liposomes with initial glucose concentration 200 mM).
With “cyclo[-(Trp-D-Leu)3-Gln-D-Leu-] (cyclo(W[dL]W[dL]W[dL]Q[dL]); SMILES CC(C)C[C@H]1NC(=O)[C@H](CCC(N)=O)NC(=O)[C@@H](CC(C)C)NC(=O)[C@H](Cc2c[nH]c3ccccc23)NC(=O)[C@@H](CC(C)C)NC(=O)[C@H](Cc2c[nH]c3ccccc23)NC(=O)[C@@H](CC(C)C)NC(=O)[C@H](Cc2c[nH]c3ccccc23)NC1=O) [eight residue ion channel forming cyclic peptide, approximately 7.5 Å pore]”, the “partitioning / incorporation into lipid bilayers” value in data set [1] is “rapid partitioning”. In addition, in data set [2] (sentence reads 'neither ... nor ... display any glucose transport activity' = none), the “display any glucose transport activity under similar assay conditions” value is “nor”.
